PubChem BioAssay (NCI)
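In this assay, cells in 96-well plates receive the compound at five concentrations for 48 hours. Endpoints are linearly interpolated between the surrounding concentrations. At the GI50, growth is halved. The concentration for full growth arrest is given as TGI.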

How the values were obtained:
Test in all cases: NCI anticancer screen, dose series, 48 h
[1] = tested on: HT29 colon
[2] = tested on: M14 melanoma
[3] = tested on: UACC-62 melanoma
[4] = tested on: NCI/ADR-RES ovarian
[5] = tested on: SW-620 colon
[6] = tested on: U251 CNS
[7] = tested on: HCT-116 colon
[8] = tested on: K-562 leukemia
[9] = tested on: SK-OV-3 ovarian
[10] = tested on: SK-MEL-28 melanoma
[11] = tested on: HS 578T breast
[12] = tested on: PC-3 prostate
[13] = tested on: MDA-MB-231 breast
[14] = tested on: HOP-92 NSCLC
[15] = tested on: ACHN renal
[16] = tested on: SF-295 CNS
[17] = tested on: HCC-2998 colon
[18] = tested on: SK-MEL-5 melanoma
[19] = tested on: HL-60(TB) leukemia
[20] = tested on: 786-0 renal
[21] = tested on: EKVX NSCLC
[22] = tested on: A498 renal
[23] = tested on: UO-31 renal
[24] = tested on: SK-MEL-2 melanoma
[25] = tested on: NCI-H23 lung
[26] = tested on: LOX IMVI melanoma
[27] = tested on: HOP-62 NSCLC
[28] = tested on: OVCAR-8 ovarian
[29] = tested on: IGROV1 ovarian
[30] = tested on: NCI-H226 lung
[31] = tested on: NCI-H522 lung
[32] = tested on: SN12C renal
[33] = tested on: MALME-3M melanoma
[34] = tested on: OVCAR-5 ovarian
[35] = tested on: SR leukemia
[36] = tested on: OVCAR-4 ovarian
[37] = tested on: MOLT-4 leukemia
[38] = tested on: T-47D breast
[39] = tested on: MDA-MB-435
[40] = tested on: SNB-19 CNS
[41] = tested on: RXF 393 renal
[42] = tested on: SF-268 CNS
[43] = tested on: CCRF-CEM leukemia
[44] = tested on: HCT-15 colon
[45] = tested on: SNB-75 CNS
[46] = tested on: CAKI-1 renal
[47] = tested on: SF-539 CNS
[48] = tested on: BT-549 breast
[49] = tested on: OVCAR-3 ovarian
[50] = tested on: MCF7 breast
[51] = tested on: TK-10 renal
[52] = tested on: RPMI-8226 leukemia
[53] = tested on: UACC-257 melanoma
[54] = tested on: A549 NSCLC
[55] = tested on: NCI-H460 lung
[56] = tested on: COLO 205 colon
[57] = tested on: DU-145 prostate
[58] = tested on: KM12 colon

Structure (SMILES): O=C(N/N=C/c1ccc([N+](=O)[O-])o1)c1[nH]c2ccc(Br)cc2c1-c1ccccc1
- GI50 [1]: 0.307 µM
- TGI [1]: 1.27 µM
- GI50 [2]: 0.274 µM
- TGI [2]: 1.16 µM
- GI50 [3]: 0.15 µM
- TGI [3]: 2.07 µM
- GI50 [4]: 0.234 µM
- TGI [4]: 2.83 µM
- GI50 [5]: 0.359 µM
- TGI [5]: 1.97 µM
- GI50 [6]: 0.303 µM
- TGI [6]: 1.56 µM
- GI50 [7]: 0.182 µM
- TGI [7]: 0.98 µM
- GI50 [8]: 0.118 µM
- TGI [8]: > 100 µM
- GI50 [9]: 0.501 µM
- TGI [9]: 8.37 µM
- GI50 [10]: 1.17 µM
- TGI [10]: 7.19 µM
- GI50 [11]: 0.519 µM
- TGI [11]: 14.6 µM
- GI50 [12]: 0.4 µM
- TGI [12]: 6.39 µM
- GI50 [13]: 0.288 µM
- TGI [13]: 1.05 µM
- GI50 [14]: 0.733 µM
- TGI [14]: 4.39 µM
- GI50 [15]: 0.379 µM
- TGI [15]: 6.11 µM
- GI50 [16]: 0.189 µM
- TGI [16]: 1.23 µM
- GI50 [17]: 0.367 µM
- TGI [17]: 1.6 µM
- GI50 [18]: 0.235 µM
- TGI [18]: 0.638 µM
- GI50 [19]: 0.235 µM
- TGI [19]: 0.626 µM
- GI50 [20]: 0.367 µM
- TGI [20]: 4.75 µM
- GI50 [21]: 1.12 µM
- TGI [21]: 9.14 µM
- GI50 [22]: 7.45 µM
- TGI [22]: 24.4 µM
- GI50 [23]: 0.431 µM
- TGI [23]: 7.82 µM
- GI50 [24]: 0.335 µM
- TGI [24]: 1.7 µM
- GI50 [25]: 0.393 µM
- TGI [25]: 4.16 µM
- GI50 [26]: 0.19 µM
- TGI [26]: 1.61 µM
- GI50 [27]: 0.541 µM
- TGI [27]: 5.36 µM
- GI50 [28]: 0.241 µM
- TGI [28]: 0.677 µM
- GI50 [29]: 0.34 µM
- TGI [29]: 10.9 µM
- GI50 [30]: 0.306 µM
- TGI [30]: 1.56 µM
- GI50 [31]: 0.0374 µM
- TGI [31]: 0.345 µM
- GI50 [32]: 0.323 µM
- TGI [32]: 1.98 µM
- GI50 [33]: 0.682 µM
- TGI [33]: 3.32 µM
- GI50 [34]: 0.439 µM
- TGI [34]: 14 µM
- GI50 [35]: 0.143 µM
- TGI [35]: 9.09 µM
- GI50 [36]: 0.72 µM
- TGI [36]: 10.5 µM
- GI50 [37]: 0.356 µM
- TGI [37]: 10.6 µM
- GI50 [38]: 1.79 µM
- TGI [38]: 24 µM
- GI50 [39]: 0.111 µM
- TGI [39]: 0.293 µM
- GI50 [40]: 0.337 µM
- TGI [40]: 12.1 µM
- GI50 [41]: 0.294 µM
- TGI [41]: 1.09 µM
- GI50 [42]: 0.564 µM
- TGI [42]: 11 µM
- GI50 [43]: 0.414 µM
- TGI [43]: 45.8 µM
- GI50 [44]: 0.23 µM
- TGI [44]: 0.987 µM
- GI50 [45]: 0.216 µM
- TGI [45]: 1.55 µM
- GI50 [46]: 0.382 µM
- TGI [46]: 9.37 µM
- GI50 [47]: 0.177 µM
- TGI [47]: 0.514 µM
- GI50 [48]: 0.222 µM
- TGI [48]: 0.694 µM
- GI50 [49]: 0.433 µM
- TGI [49]: 4.09 µM
- GI50 [50]: 0.11 µM
- TGI [50]: 5.53 µM
- GI50 [51]: 1.53 µM
- TGI [51]: 10.1 µM
- GI50 [52]: 0.357 µM
- TGI [52]: 12.8 µM
- GI50 [53]: 0.542 µM
- TGI [53]: 4.35 µM
- GI50 [54]: 0.354 µM
- TGI [54]: 11.8 µM
- GI50 [55]: 0.331 µM
- TGI [55]: 1 µM
- GI50 [56]: 0.244 µM
- TGI [56]: 0.577 µM
- GI50 [57]: 0.406 µM
- TGI [57]: 12.2 µM
- GI50 [58]: 0.41 µM
- TGI [58]: 11.6 µM
